# In US10770169B2, “Method of providing a treatment to a subject based on a dynamic pathway map” (THE REGENTS OF THE UNIVERSITY OF CALIFORNIA, priority 2010, dated 2020):
# Assays:
# [1] = tested on: luminal, basal, claudin-low and ERBB2AMP breast cancer cell lines; assay: Associations of clinically relevant subtypes and response (non-parametric ANOVA or t-test on GI50 ranks); format: cell-based, human; conditions: Table 6; most sensitive subtype, FDR p<0.20
# In short: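 GI50 values were compared between cell-line subtype groups by non-parametric ANOVA or t-test on ranks. P-values from three test sets were combined and FDR-corrected. Significant three-group effects were followed by post-hoc comparison of each group against all others, and FDR p<0.20 counted as significant.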
# [2] = tested on: panel of 55 breast cancer cell lines; assay: Cell growth inhibition assay (Cell Titer Glo, 72 h, 9 doses; GI50, TGI, LC50); format: cell-based, human; conditions: value is the negative log10 of mol/L
smiles,measurement,setting,value
NC(=O)Nc1sc(-c2ccc(F)cc2)cc1C(N)=O [TPCA-1],Subtype specificity,[1],Basal + Claudin-low
same,GI50,"[2]; BT20 cell line, censored GI50 values",4.36
same,GI50,"[2]; HCC38 cell line, censored GI50 values",5.50
same,GI50,"[2]; HCC70 cell line, censored GI50 values",5.44
same,GI50,"[2]; HCC1143 cell line, censored GI50 values",5.07
same,GI50,"[2]; HCC1187 cell line, censored GI50 values",5.67
same,GI50,"[2]; HCC1395 cell line, censored GI50 values",5.22
same,GI50,"[2]; HCC1419 cell line, censored GI50 values",5.53
same,GI50,"[2]; HCC1428 cell line, censored GI50 values",5.45
same,GI50,"[2]; HCC1500 cell line, censored GI50 values",5.39
same,GI50,"[2]; HCC1806 cell line, censored GI50 values",5.34
same,GI50,"[2]; HCC1954 cell line, censored GI50 values",4.77
same,GI50,"[2]; HCC2185 cell line, censored GI50 values",5.36
same,GI50,"[2]; HCC3153 cell line, censored GI50 values",4.87
same,GI50,"[2]; LY2 cell line, censored GI50 values",4.54
same,GI50,"[2]; MDAMB134VI cell line, censored GI50 values",4.79
same,GI50,"[2]; MDAMB231 cell line, censored GI50 values",4.45
same,GI50,"[2]; MDAMB361 cell line, censored GI50 values",4.18
same,GI50,"[2]; MDAMB436 cell line, censored GI50 values",5.16
same,GI50,"[2]; MDAMB468 cell line, censored GI50 values",5.94
same,GI50,"[2]; SUM52PE cell line, censored GI50 values",6.25
same,GI50,"[2]; SUM149PT cell line, censored GI50 values",5.78
same,GI50,"[2]; SUM159PT cell line, censored GI50 values",5.81
same,GI50,"[2]; SUM1315MO2 cell line, censored GI50 values",6.09
same,GI50,"[2]; UACC893 cell line, censored GI50 values",5.21
same,GI50,[2]; cell line 600MPE,4.18
same,GI50,[2]; cell line AU565,4.18
same,GI50,[2]; cell line BT20,4.36
same,GI50,[2]; cell line BT474,4.18
same,GI50,[2]; cell line BT549,4.18
same,GI50,[2]; cell line HCC38,5.50
same,GI50,[2]; cell line HCC70,5.44
same,GI50,[2]; cell line HCC202,3.88
same,GI50,[2]; cell line HCC1143,5.07
same,GI50,[2]; cell line HCC1187,5.67
same,GI50,[2]; cell line HCC1395,5.22
same,GI50,[2]; cell line HCC1419,5.53
same,GI50,[2]; cell line HCC1428,5.45
same,GI50,[2]; cell line HCC1500,5.39
same,GI50,[2]; cell line HCC1806,5.34
same,GI50,[2]; cell line HCC1937,4.18
same,GI50,[2]; cell line HCC1954,4.77
same,GI50,[2]; cell line HCC2185,5.36
same,GI50,[2]; cell line HCC3153,4.87
same,GI50,[2]; cell line LY2,4.54
